Laboratory results: BindingDB's records for doi:10.1111/j.1747-0285.2007.00514.x (University of Maryland, 2007)

Target: HIV-1 protease (Human immunodeficiency virus, UniProt O90783)
Test: Inhibition Assay
Excerpt: Inhibition assay using HIV protease and Sulfonamide compounds.

Chain of HIV-1 protease (O90783 whole entry): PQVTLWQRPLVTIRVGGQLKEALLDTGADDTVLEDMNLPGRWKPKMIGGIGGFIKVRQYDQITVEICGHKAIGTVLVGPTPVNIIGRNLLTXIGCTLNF

Row | Ki [nM] | Compound
1 | 260 | C[C@@H](O)CN(C[C@@H](O)[C@H](Cc1ccccc1)NC(=O)CC1C=CCC1)S(=O)(=O)c1ccco1 (stereo partly specified) [CARB-KB51]
2 | 910 | COc1cc(C(=O)N[C@@H](Cc2ccccc2)[C@H](O)CN(C[C@H]2CCCO2)S(=O)(=O)c2cn(C)cn2)ccn1 [CARB-AC97]
3 | 0.18 | CC(=N[C@H]1c2ccccc2C[C@H]1O)[C@@H](Cc1ccccc1)C[C@H](O)CN1CCN(Cc2cccnc2)C[C@H]1C(=O)NC(C)(C)C [IDV]
4 | 110 | COc1cccc(S(=O)(=O)N(CC2CCCO2)C[C@@H](O)[C@H](Cc2ccccc2)NC(=O)c2ccnc(OC)c2)c1 (stereo partly specified) [CARB-AD08]
5 | 760 | CNC(=O)CCC(=O)N[C@@H](Cc1ccccc1)[C@H](O)CN(C[C@@H](C)O)S(=O)(=O)c1cccc(OC)c1 [CARB-KB32]
6 | 540 | CNC(=O)CCC(=O)N[C@@H](Cc1ccccc1)[C@H](O)CN(C[C@@H](C)O)S(=O)(=O)c1ccco1 [CARB-KB49]
